Among the data in patent US20260356841A1, “HETEROCYCLIC PYRIDINONE COMPOUNDS AS TRIGGERING RECEPTOR EXPRESSED ON MYELOID CELLS 2 AGONISTS AND METHODS OF USE” (Vigil Neuroscience, Inc., priority 2023, published 2026) are EC50 values, retold here.

As a reminder, the pEC50 is the EC50 on a negative log10 scale, so that one unit is a factor of ten.

For the assay, the target named is T1, human TREM2 (Homo sapiens, UniProt Q9NZC2).
T1 construct: expressed in transfected cells; host or cells: HEK293T (HEK293T-hTREM2 cells)
T1 sequence (Q9NZC2 19-230): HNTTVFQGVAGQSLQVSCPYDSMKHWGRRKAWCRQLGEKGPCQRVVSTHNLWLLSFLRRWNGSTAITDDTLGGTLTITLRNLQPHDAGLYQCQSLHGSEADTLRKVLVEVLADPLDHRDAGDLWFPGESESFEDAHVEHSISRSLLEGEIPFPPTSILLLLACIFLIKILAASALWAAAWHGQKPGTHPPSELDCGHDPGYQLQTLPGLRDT
T1 sequence (O43914 22-113 partner): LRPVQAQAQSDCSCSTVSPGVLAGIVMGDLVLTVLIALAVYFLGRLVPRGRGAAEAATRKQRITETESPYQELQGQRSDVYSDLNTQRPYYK
Nature of the assay: TREM2 agonist potency by cellular phosphorylation of Spleen Tyrosine Kinase (Syk), AlphaLisa, HEK293T-hTREM2 cells. The assay is classed as cell-based. The essentials:
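HEK293T cells co-expressing human TREM2 and DAP12, plated 20–24 h before use. Compounds applied 45 min at room temperature in assay buffer, then cells lysed and phospho-Syk quantified by AlphaLisa. Percent activation from a standard curve; EC50 from a four-parameter variable-slope fit.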
A general note: In Alpha technology, singlet oxygen from a donor bead excites a nearby acceptor bead.

The mark [1] stands for this setting: hTREM2 EC50 Data (HEK293 Cells), Syk phosphorylation, AlphaLisa, read-out: hTREM2 EC50.

pEC50: −log10 of the molar value. Where two headings read alike, the source gives them in different places. A value given as a limit tells only on which side of the number the result lay.

With `[2H]C([2H])([2H])C([2H])(n1cc([C@H]2C[C@@H](c3nc(C45CC(C(F)(F)F)(C4)C5)c4nc(C)c(C)nc4n3)CCO2)ccc1=O)C([2H])([2H])[2H]` [Example 88, 5-[(2R,4S)-4-[6,7-dimethyl-4-[3-(trifluoromethyl)-1-bicyclo[1.1.1]pentanyl]pteridin-2-yl]tetrahydropyran-2-yl]-1-[1,2,2,2-tetradeuterio-1-(trideuteriomethyl)ethyl]pyridin-2-one], the negative-log EC50 (pEC50) is above 7.00.
In the case of `Cc1nc2nc([C@H]3CCO[C@@H](c4ccc(=O)n(N5CC6C(C5)C6(F)F)c4)C3)nc(C34CC(C(F)(F)F)(C3)C4)c2nc1C` (stereo partly drawn) [Example 215, 1-(6,6-difluoro-3-azabicyclo[3.1.0]hexan-3-yl)-5-[(2R,4S)-4-[6,7-dimethyl-4-[3-(trifluoromethyl)-1-bicyclo[1.1.1]pentanyl]pteridin-2-yl]tetrahydropyran-2-yl]pyridin-2-one], the negative logarithm of the EC50 (pEC50) under setting [1] is above 7.00.
As for `Cc1nc2nc([C@H]3CCO[C@@H](c4ccc(=O)n(-c5cnco5)c4)C3)nc(C34CC(C(F)(F)F)(C3)C4)c2nc1C` [Example 116, 5-((2R,4S)-4-(6,7-dimethyl-4-(3-(trifluoromethyl)-bicyclo-[1.1.1]pentan-1-yl)pteridin-2-yl)tetrahydro-2H-pyran-2-yl)-1-(oxazol-5-yl)pyridin-2(1H)-one], the negative-log EC50 (pEC50) under setting [1] was above 7.00.
On the same count and under the same terms, the figure for `C=CCN(CC=C)n1cc([C@H]2C[C@@H](c3nc(C45CC(C(F)(F)F)(C4)C5)c4nc(C)c(C)nc4n3)CCO2)ccc1=O` [Example 206, 1-(diallylamino)-5-[(2R,4S)-4-[6,7-dimethyl-4-[3-(trifluoromethyl)-1-bicyclo[1.1.1]pentanyl]pteridin-2-yl]tetrahydropyran-2-yl]pyridin-2-one] is above 7.00.
The same measure, in the same setting: the figure for `CN(C)c1nc2c(C34CC(C(F)(F)F)(C3)C4)nc([C@H]3CCO[C@@H](c4ccc(=O)n(C)c4)C3)nc2n1C` [Example 188] is below 6.30; for `Cc1nc2nc([C@H]3CCO[C@@H](c4ccc(=O)[nH]c4)C3)nc(C34CC(C(F)(F)F)(C3)C4)c2cc1C(F)(F)F` [Example 330, 5-((2R,4S)-4-(7-methyl-6-(trifluoromethyl)-4-(3-(trifluoromethyl)bicyclo[1.1.1]pentan-1-yl)pyrido[2,3-d]pyrimidin-2-yl)tetrahydro-2H-pyran-2-yl)pyridin-2(1H)-one] it is above 7.00.
Turning to `Cc1nc2nc([C@H]3CCO[C@@H](c4ccc(=O)n(C)c4)C3)nc(C34CC(C(C)(C)F)(C3)C4)c2nc1C` [Example 52, 5-[(2R,4S)-4-[4-[3-(1-fluoro-1-methyl-ethyl)-1-bicyclo[1.1.1]pentanyl]-6,7-dimethyl-pteridin-2-yl]tetrahydropyran-2-yl]-1-methyl-pyridin-2-one], the pEC50 under setting [1] was above 7.00.
Same read-out and setting: the result for `COc1nc2c(-c3ccc(C(F)(F)F)cc3F)nc(C3CCOC(c4ccc(=O)n(C)c4)C3)nc2nc1C` (centres unmarked) [Example 131] reads above 7.00; that for `Cc1nc2nc(N3C[C@@H](C)O[C@@H](c4ccc(=O)n(N)c4)C3)nc(C34CC(C(F)(F)F)(C3)C4)c2nc1C` [Example 184, 1-amino-5-[(2S,6R)-4-[6,7-dimethyl-4-[3-(trifluoromethyl)-1-bicyclo[1.1.1]pentanyl]pteridin-2-yl]-6-methyl-morpholin-2-yl]pyridin-2-one], above 7.00; that for `Cc1nc2nc([C@H]3CCO[C@@H](c4ccc(=O)n(N)c4)C3)nc(C34CC(C(F)(F)F)(C3)C4)c2cc1C(F)(F)F` [Example 332, 1-amino-5-((2R,4S)-4-(7-methyl-6-(trifluoromethyl)-4-(3-(trifluoromethyl)bicyclo[1.1.1]pentan-1-yl)pyrido[2,3-d]pyrimidin-2-yl)tetrahydro-2H-pyran-2-yl)pyridin-2 (1H)-one], above 7.00.
`Cc1nc2nc([C@H]3CCO[C@@H](c4ccc(=O)n(C5CC5)c4)C3)nc(C34CC(C(F)(F)F)(C3)C4)c2nc1C` [Example 74, 1-cyclopropyl-5-[(2R,4S)-4-[6,7-dimethyl-4-[3-(trifluoromethyl)-1-bicyclo[1.1.1]pentanyl]pteridin-2-yl]tetrahydropyran-2-yl]pyridin-2-one]: the negative logarithm of the EC50 (pEC50) under setting [1] was above 7.00.
As for `[2H]C([2H])([2H])c1nc2nc(N3C[C@@H](C)O[C@@H](c4ccc(=O)n(C5CC5)c4)C3)nc(C34CC(C(F)(F)F)(C3)C4)c2nc1C([2H])([2H])[2H]` [Example 182, 5-[(2S,6R)-4-[6,7-bis(methyl-d3)-4-[3-(trifluoromethyl)-1-bicyclo[1.1.1]pentan-1-yl]pteridin-2-yl]-6-methyl-morpholin-2-yl]-1-cyclopropylpyridin-2(1H)-one], the pEC50 under setting [1] was above 7.00.
Same read-out and setting: the result for `Cc1nc2nc([C@H]3C[C@@H](C)O[C@@H](c4ccc(=O)n(C)c4)C3)nc(C34CC(C(F)(F)F)(C3)C4)c2nc1C` [Example 56, 5-[(2R,4S,6R)-4-[6,7-dimethyl-4-[3-(trifluoromethyl)-1-bicyclo[1.1.1]-pentanyl]pteridin-2-yl]-6-methyl-tetrahydropyran-2-yl]-1-methyl-pyridin-2-one] reads above 7.00; that for `Cc1nc2nc([C@@H]3CCO[C@H](c4ccc(=O)n(C)c4)C3)cc(C34CC(C(F)(F)F)(C3)C4)c2nc1C` [Example 168, 1-methyl-5-[(2S,4R)-4-[2,3-dimethyl-8-[3-(trifluoromethyl)-1-bicyclo[1.1.1]pentanyl]pyrido[2,3-b]pyrazin-6-yl]tetrahydropyran-2-yl]pyridin-2-one], above 7.00.
